Assay results as given in US9969716B2, “Indole derivatives as modulators of methyl modifying enzymes, compositions and uses thereof” (Constellation Pharmaceuticals, Inc., priority 2013, dated 2018).
Read-outs that look alike come from different tables or passages of the source.

Tests used:
EZH2 = EZH2 (Homo sapiens, UniProt Q15910); assay: EZH2 assay (rPRC2, 3H SAM methyl transfer to biotinylated oligonucleosomes, FlashPlate); assay type: biochemical
Method: EZH2 Assay: Assays were carried out by mixing rPRC2 together with biotinylated oligonucleosome substrates in the presence of the radio-labeled enzyme co-factor, S-adenosyl-L-methionine (^3H SAM) (Perkin Elmer) and monitoring the enzymatically mediated transfer of tritiated methyl groups from ^3H SAM to histone lysine residues. The amount of resulting tritiated methyl histone product was measured by first capturing the biotinylated oligonucleosomes in streptavidin (SAV) coated FlashPlates (Perkin Elmer), followed by a wash step to remove un-reacted ^3H SAM, and then counting on a TopCount NXT 384 well plate scintillation counter (Perkin Elmer). The final assay conditions for EZH2 were as follows: 50 mM Tris Buffer pH 8.5, 1 mM DTT, 69 μM Brij-35 detergent, 5.0 mM MgCl2, 0.1 mg/mL BSA, 0.2 μM ^3H SAM, 0.2 μM biotinylated oligonucleosomes, 3.6 μM H3K27me3 peptide and 2 nM EZH2.
A 12.5 μL volume of the HMT enzyme, H3K27me3 peptide and oligonucleosome substrate in assay buffer was added to each well of the assay plate using a Multidrop Combi (ThermoFisher). Compounds were pre-incubated with the enzyme for 20 min, followed by initiation of the methyltransferase reaction by addition of 12.5 μL of ^3H SAM in assay buffer (final volume=25 μL). The final concentrations of compounds ranged from a top default concentration of 80 μM down to 0.16 μM in ten 2-fold dilution steps. Reactions were carried out for 60 minutes and quenched with 20 μL per well of 1.96 mM SAH, 50 mM Tris pH 8.5, 200 mM EDTA. Stopped reactions were transferred to SAV coated Flashplates (Perkin Elmer), incubated for 120 min, washed with a plate washer, and then read on the TopCount NXT (1.0 min/well) to measure the amount of methyl histone product formed during the reaction.

[1] = system: H3K27me3 mark in HeLa cells; assay: H3K27me3 Alpha Hela Assay (AlphaLISA); assay type: cell-based; conditions: Homo sapiens, 72 hrs, read-out: EZH2_Cell_H3K27me3_Alpha_HeLa (EC50_K27me3)
Method: Ten different doses of each test compound (in a series of 3-fold dilutions) were plated in duplicate 384-well tissue culture treated plates (Catalog #781080; Greiner Bio One; Monroe, N.C.). Hela cells grown in culture were trypsinized and counted using a Countess® cell counter (Catalog # C10281; Life Technologies, Grand Island, N.Y.). Cell were diluted to 67,000 cells per mL in 10% DMEM (Catalog #10569-010 Life Technologies, Grand Island, N.Y.) and 15 μL (1,000 cells) were plated into each well using the Biotek MicroFlo™ Select Dispenser (BioTek Instruments, Inc. Vermont, USA),) of the 384-well plate. Plates were incubated at 37° C./5% CO2 for 72 hrs. One of the duplicate plates was processed for HeLa assay and the other for viability.
To the plate processed for AlphaLISA was added 5 μL per well Cell-Histone Lysis buffer (1λ) (Catalog # AL009F1 Perkin Elmer; Waltham, Mass.) and the plate was incubated at RT for 30 minutes on a plate shaker with low speed (Model#4625-Q Thermo Scientific; Waltham, Mass.). Then, 10 μL per well Histone Extraction buffer (catalog # AL009F2; Perkin Elmer; Waltham, Mass.) was added and the plate further incubated at RT for 20 min on plate shaker with low speed. To each well was then added 10 μL per well of a 5× mix of anti-K27me3 acceptor beads plus Biotinylated anti-Histone H3 (C-ter) Antibody (diluted to 3 nM final) (Catalog #AL118 Perkin Elmer; Waltham, Mass.). Dilution of the acceptor beads and then anti-Histone H3 was with 1× Histone Detection buffer (Catalog # AL009F3 Perkin Elmer; Waltham, Mass.) which was produced diluted from the 10× stock provided. The plate was sealed with an aluminum plate sealer and incubated at 23° C. for 60 min. We then added 10 μL 5× solution of Streptavidin Donor beads (Catalog #6760002 Perkin Elmer; Waltham, Mass.) (20 μg/mL final in 1× Histone Detection Buffer), sealed the plate with Aluminum plate sealer and incubated at 23° C. for 30 min. The plates were then read using an EnVision-Alpha Reader (model #2104 Perkin Elmer; Waltham, Mass.).
Data from both assays was analyzed using Assay Assistant (Constellation Pharmaceuticals In-house product) and Activity Base (IDBS Ltd, Surrey, UK) template. Data files were imported to Assay Assistant and assay conditions were specified. A unique Analysis ID was created and the data files exported to Activity Base. An analysis template was created on Activity Base to measure dose-dependent inhibition of H3K27me3 mark and cell viability respectively. Readout of DMSO wells were used to normalize the data. Resulting curves were fitted using Activity base software Model 205 (IDBS Ltd, Surrey, UK). The data was checked for quality, validated and integrated in excel format using SARview (IDBS Ltd, Surrey, UK).

EZH2, sequence (Q15910 whole entry): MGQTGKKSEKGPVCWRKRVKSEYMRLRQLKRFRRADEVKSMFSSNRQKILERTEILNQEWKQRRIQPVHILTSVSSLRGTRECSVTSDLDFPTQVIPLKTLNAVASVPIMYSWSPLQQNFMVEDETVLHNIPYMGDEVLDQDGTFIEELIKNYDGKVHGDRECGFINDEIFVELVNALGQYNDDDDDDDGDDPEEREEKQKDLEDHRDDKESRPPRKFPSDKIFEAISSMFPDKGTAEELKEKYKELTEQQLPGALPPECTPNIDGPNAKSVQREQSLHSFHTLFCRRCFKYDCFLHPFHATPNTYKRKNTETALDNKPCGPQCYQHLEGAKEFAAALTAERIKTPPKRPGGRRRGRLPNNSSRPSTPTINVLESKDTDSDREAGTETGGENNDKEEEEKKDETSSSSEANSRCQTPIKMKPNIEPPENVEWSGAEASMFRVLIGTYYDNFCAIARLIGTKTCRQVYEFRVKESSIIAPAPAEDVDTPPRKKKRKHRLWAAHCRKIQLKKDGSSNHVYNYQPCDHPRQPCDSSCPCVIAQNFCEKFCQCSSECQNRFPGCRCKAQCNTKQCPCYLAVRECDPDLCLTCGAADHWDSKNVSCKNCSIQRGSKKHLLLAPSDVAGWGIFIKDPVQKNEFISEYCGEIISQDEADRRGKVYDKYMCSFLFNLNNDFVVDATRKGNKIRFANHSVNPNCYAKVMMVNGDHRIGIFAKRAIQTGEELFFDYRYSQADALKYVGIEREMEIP
EZH2, sequence (O75530 whole entry partner): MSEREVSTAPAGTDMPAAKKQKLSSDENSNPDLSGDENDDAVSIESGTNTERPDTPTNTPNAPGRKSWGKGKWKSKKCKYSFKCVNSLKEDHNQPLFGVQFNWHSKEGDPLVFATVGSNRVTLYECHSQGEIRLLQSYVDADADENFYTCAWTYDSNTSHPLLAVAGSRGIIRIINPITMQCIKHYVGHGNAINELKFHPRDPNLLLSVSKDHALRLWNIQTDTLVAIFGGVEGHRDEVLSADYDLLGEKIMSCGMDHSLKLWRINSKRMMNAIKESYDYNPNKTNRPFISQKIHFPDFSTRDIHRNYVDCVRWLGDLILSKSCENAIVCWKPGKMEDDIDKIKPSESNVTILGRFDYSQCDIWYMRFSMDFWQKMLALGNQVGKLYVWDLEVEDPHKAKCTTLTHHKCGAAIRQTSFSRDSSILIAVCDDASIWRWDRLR
EZH2, sequence (Q15022 whole entry partner): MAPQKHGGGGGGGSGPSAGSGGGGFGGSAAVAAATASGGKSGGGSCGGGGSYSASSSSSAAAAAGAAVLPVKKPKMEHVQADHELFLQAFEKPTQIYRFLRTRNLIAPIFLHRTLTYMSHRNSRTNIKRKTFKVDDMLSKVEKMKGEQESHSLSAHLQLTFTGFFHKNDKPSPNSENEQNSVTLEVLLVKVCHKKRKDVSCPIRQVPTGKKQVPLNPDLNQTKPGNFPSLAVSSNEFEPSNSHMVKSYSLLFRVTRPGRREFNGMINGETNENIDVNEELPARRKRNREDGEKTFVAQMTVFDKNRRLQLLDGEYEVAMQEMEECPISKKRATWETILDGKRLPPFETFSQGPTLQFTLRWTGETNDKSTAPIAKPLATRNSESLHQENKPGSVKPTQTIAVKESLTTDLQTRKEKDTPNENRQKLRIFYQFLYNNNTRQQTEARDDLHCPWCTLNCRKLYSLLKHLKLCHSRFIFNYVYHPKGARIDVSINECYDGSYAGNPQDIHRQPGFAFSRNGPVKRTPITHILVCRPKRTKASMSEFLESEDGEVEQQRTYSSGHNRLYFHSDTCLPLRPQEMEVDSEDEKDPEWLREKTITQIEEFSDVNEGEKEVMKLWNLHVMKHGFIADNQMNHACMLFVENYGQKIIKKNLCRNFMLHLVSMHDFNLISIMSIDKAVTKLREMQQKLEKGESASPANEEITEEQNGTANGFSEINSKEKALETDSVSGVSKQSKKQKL

Compound	IC50 (EZH2) [nM]	EC50 [1] [nM]	IC50 (EZH2; 2 nM EZH2, 0.2 μM 3H SAM, 0.2 μM biotinylated oligonucleosomes, 3.6 μM H3K27me3 peptide, 60 min, read-out: EZH2_nuc_BSA_Brij_1.5 (IC50)) [nM]
COc1cc(C)[nH]c(=O)c1CNC(=O)c1c(C)n([C@H](C)C2CCN(C(=O)C3CCC(C)CC3)CC2)c2ccccc12 (mixture of isomers) [Compound 234]	< 100	< 400	–
CCC(F)(F)CN1CCC([C@@H](C)n2c(C)c(C(=O)NCc3c(OC)cc(C)[nH]c3=O)c3ccccc32)CC1 [Compound 108]	< 100	< 400	–
COc1cc(C)[nH]c(=O)c1CNC(=O)c1c(C)n([C@H](C)C2CCN(C(=O)C(C)(C)C(F)(F)F)CC2)c2ccccc12 [Compound 114]	< 100	< 400	–
COC(C)(C)CN1CCC([C@@H](C)n2c(C)c(C(=O)NCc3c(C)cc(C)[nH]c3=O)c3ccccc32)CC1 [Compound 127]	< 100	< 400	–
COc1cc(C)[nH]c(=O)c1CNC(=O)c1c(C)n([C@H](C)C2CCN(CC(C)(C)OC)CC2)c2ccccc12 [Compound 128]	–	< 400	–
CCCc1cc(C)[nH]c(=O)c1CNC(=O)c1c(C)n([C@H](C)C2CCN(S(=O)(=O)CC)CC2)c2ccccc12 [Compound 132]	–	< 400	–
COc1cc(C)[nH]c(=O)c1CNC(=O)c1c(C)n([C@H](C)C2CCN(CC3(C(F)(F)F)CCC3)CC2)c2ccccc12 [Compound 135]	–	< 400	–
CCS(=O)(=O)N1CCC([C@@H](C)n2c(C)c(C(=O)NCc3c(OCC(F)(F)F)cc(C)[nH]c3=O)c3ccccc32)CC1 [Compound 163]	–	400 to 2000	–
COc1cc(C)[nH]c(=O)c1CNC(=O)c1c(C)n([C@H](C)C2CCN(CC(C)=O)CC2)c2ccccc12 [Compound 169]	–	–	< 100
COc1cc(C)[nH]c(=O)c1CNC(=O)c1c(C)n([C@H](C)C2CCN(CC(F)(F)CO)CC2)c2ccccc12 [Compound 175]	< 100	400 to 2000	–
COc1cc(C)[nH]c(=O)c1CNC(=O)c1c(C)n([C@H](C)C2CCN(C(C)C(F)F)CC2)c2ccccc12 (some centres unmarked) [Compound 177]	< 100	< 400	–
COc1cc(C)[nH]c(=O)c1CNC(=O)c1c(C)n([C@H](C)C2CCN(CC3CCO3)CC2)c2ccccc12 (some centres unmarked) [Compound 179]	< 100	400 to 2000	–
COc1cc(C)[nH]c(=O)c1CNC(=O)c1c(C)n([C@H](C)C2CCN(CC3COC3)CC2)c2ccccc12 [Compound 180]	< 100	> 2000	–
COCC(F)(F)CN1CCC([C@@H](C)n2c(C)c(C(=O)NCc3c(OC)cc(C)[nH]c3=O)c3ccccc32)CC1 [Compound 181]	< 100	< 400	–
COc1cc(C)[nH]c(=O)c1CNC(=O)c1c(C)n([C@H](C)C2CCN(CC(C)(C)C#N)CC2)c2ccccc12 [Compound 185]	< 100	400 to 2000	–
COc1cc(C)[nH]c(=O)c1CNC(=O)c1c(C)n([C@H](C)C2CCN(C(=O)CC#N)CC2)c2ccccc12 [Compound 186]	< 100	400 to 2000	–
COc1cc(C)[nH]c(=O)c1CNC(=O)c1c(C)n([C@H](C)C2CCN(C(=O)C3(C)COC3)CC2)c2ccccc12 [Compound 189]	< 100	400 to 2000	–
COc1cc(C)[nH]c(=O)c1CNC(=O)c1c(C)n([C@H](C)C2CCN(C(=O)C3(C)CC3)CC2)c2ccccc12 [Compound 190]	< 100	400 to 2000	–
COc1cc(C)[nH]c(=O)c1CNC(=O)c1c(C)n([C@H](C)C2CCN(C(=O)C3(C)CCCC3)CC2)c2ccccc12 [Compound 191]	< 100	400 to 2000	–

Compound	IC50 (EZH2) [nM]	EC50 [1] [nM]	IC50 (EZH2; 2 nM EZH2, 0.2 μM 3H SAM, 0.2 μM biotinylated oligonucleosomes, 3.6 μM H3K27me3 peptide, 60 min, read-out: EZH2_nuc_BSA_Brij_1.5 (IC50)) [nM]
COc1cc(C)[nH]c(=O)c1CNC(=O)c1c(C)n([C@H](C)C2CCN(C(=O)C3(C)CN(C)C3)CC2)c2ccccc12 [Compound 192]	< 100	> 2000	–
COc1cc(C)[nH]c(=O)c1CNC(=O)c1c(C)n([C@H](C)C2CCN(CCC#N)CC2)c2ccccc12 [Compound 206]	< 100	< 400	–
COc1cc(C)[nH]c(=O)c1CNC(=O)c1c(C)n([C@H](C)C2CCN(CCS(C)(=O)=O)CC2)c2ccccc12 [Compound 207]	< 100	> 2000	–
CCCC(=O)N1CCC([C@@H](C)n2c(C)c(C(=O)NCc3c(OC)cc(C)[nH]c3=O)c3ccccc32)CC1 [Compound 209]	< 100	400 to 2000	–
CCC(C)C(=O)N1CCC([C@@H](C)n2c(C)c(C(=O)NCc3c(OC)cc(C)[nH]c3=O)c3ccccc32)CC1 (some centres unmarked) [Compound 210]	< 100	400 to 2000	–
COc1cc(C)[nH]c(=O)c1CNC(=O)c1c(C)n([C@H](C)C2CCN(C(=O)C(C)=O)CC2)c2ccccc12 [Compound 211]	< 100	400 to 2000	–
COc1cc(C)[nH]c(=O)c1CNC(=O)c1c(C)n([C@H](C)C2CCN(C(=O)Cc3ccccc3)CC2)c2ccccc12 [Compound 212]	< 100	< 400	–
COc1cc(C)[nH]c(=O)c1CNC(=O)c1c(C)n([C@H](C)C2CCN(C(=O)CC(C)C)CC2)c2ccccc12 [Compound 213]	< 100	< 400	–
COc1cc(C)[nH]c(=O)c1CNC(=O)c1c(C)n([C@H](C)C2CCN(C(=O)c3ccc(C#N)cc3)CC2)c2ccccc12 [Compound 214]	< 100	400 to 2000	–
COc1cc(C)[nH]c(=O)c1CNC(=O)c1c(C)n([C@H](C)C2CCN(C(=O)C3CCC3)CC2)c2ccccc12 [Compound 216]	< 100	< 400	–
CC[C@H](C1CCN(CC(F)F)CC1)n1c(C)c(C(=O)NCc2c(OC)cc(C)[nH]c2=O)c2ccccc21 [Compound 219]	< 100	< 400	–
COc1cc(C)[nH]c(=O)c1CNC(=O)c1c(C)n([C@H](C)C2CCN(CC3(C)COC3)CC2)c2ccccc12 [Compound 220]	< 100	< 400	–
COc1cc(C)[nH]c(=O)c1CNC(=O)c1c(C)n([C@H](C)C2CCN(C)CC2F)c2ccccc12 (some centres unmarked) [Compound 221]	< 100	< 400	–
COc1cc(C)[nH]c(=O)c1CNC(=O)c1c(C)n([C@H](C)C2CCN(CC3(F)COC3)CC2)c2ccccc12 [Compound 222]	< 100	< 400	–
COc1cc(C)[nH]c(=O)c1CNC(=O)c1c(C)n([C@H](C)C2CCN(C(=O)C3CC(F)(F)C3)CC2)c2ccccc12 [Compound 228]	< 100	400 to 2000	–
COc1cc(C)[nH]c(=O)c1CNC(=O)c1c(C)n([C@H](C)C2CCN(C(=O)C3CC3(F)F)CC2)c2ccccc12 (some centres unmarked) [Compound 229]	< 100	400 to 2000	–
COCC(F)(F)C(=O)N1CCC([C@@H](C)n2c(C)c(C(=O)NCc3c(OC)cc(C)[nH]c3=O)c3ccccc32)CC1 [Compound 230]	< 100	< 400	–
CC(=O)N1CC(N2CCC([C@@H](C)n3c(C)c(C(=O)NCc4c(C)cc(C)[nH]c4=O)c4ccccc43)CC2)C1 [Compound 231]	< 100	400 to 2000	–
COc1cc(C)[nH]c(=O)c1CNC(=O)c1c(C)n([C@H](C)C2CCN(Cc3ccc(C#N)cc3)CC2)c2ccccc12 [Compound 232]	< 100	< 400	–
